From patent US20250382305A1 (PTC THERAPEUTICS, INC., priority 2022, published 2025)

Key:
[1] = system: Total ATXN3 (tATXN3) protein; assay: Endogenous Total ATXN3 (tATXN3) Protein Assay (MSD immunoassay of cell lysates); assay type: cell-based; conditions: average IC50, total ATXN3 protein in cell lysate after 48 h with compound (Table 1)
Procedure, shortened: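 By electrochemiluminescent MSD sandwich immunoassay (mouse monoclonal capture, rabbit monoclonal and SULFO-TAG anti-rabbit detection), endogenous ATXN3 was quantified in lysates of cells treated 48 h at 37° C at 10,000 cells/well. Treatment used a 7-point 3.16-fold duplicate dilution series, with average IC50 grouped into star categories.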

ATXN3 pre-mRNA = assay: RT-qPCR Assay to Quantify Exon 4 Skipping in ATXN3 pre-mRNA in Cells; assay type: cell-based; conditions: percent exon 4 skipping in ATXN3 pre-mRNA, RT-qPCR of cell lysates; average IC50
Procedure, shortened: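 IC50 derives from a dose-response fit of percent exon 4 skipping, quantified by RT-qPCR on crude lysates. Compounds tested as 7-point 3.16-fold dilutions in duplicate; cells (10,000/well) were exposed for 24 h at 37 °C before lysis.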

N[C@@H]1CC=CC[C@H]1c1sc2c(NCc3cccs3)nc(Cl)nc2c1I [Compound 362, 6-((1R,6R)-6-aminocyclohex-3-en-1-yl)-2-chloro-7-iodo-N-(thiophen-2-ylmethyl)thieno[3,2-d]pyrimidin-4-amine]
IC50 [1]: 30 to 300 nM | IC50 (ATXN3 pre-mRNA): 30 to 300 nM

N[C@H]1CCCCC[C@@H]1c1cc2nc(Cl)cc(NCc3cccs3)c2s1 [Compound 90, 2-((1S,2S)-2-aminocycloheptyl)-5-chloro-N-(thiophen-2-ylmethyl)thieno[3,2-b]pyridin-7-amine]
IC50 [1]: 300 to 1000 nM | IC50 (ATXN3 pre-mRNA): 300 to 1000 nM

N[C@H]1CC=CC[C@@H]1c1sc2c(NCc3nccs3)cc(Cl)nc2c1Cl [Compound 178, 2-((1S,6S)-6-aminocyclohex-3-en-1-yl)-3,5-dichloro-N-(thiazol-2-ylmethyl)thieno[3,2-b]pyridin-7-amine]
IC50 [1]: ≤ 30 nM | IC50 (ATXN3 pre-mRNA): ≤ 30 nM

C/C=C/CNc1cc(Cl)nc2c(Cl)c([C@H]3CC=CC[C@@H]3N)sc12 [Compound 302, 2-((1S,6S)-6-aminocyclohex-3-en-1-yl)-N-((E)-but-2-en-1-yl)-3,5-dichlorothieno[3,2-b]pyridin-7-amine]
IC50 [1]: 30 to 300 nM | IC50 (ATXN3 pre-mRNA): 30 to 300 nM

N[C@H]1CCCCC[C@@H]1c1sc2c(NCc3cccs3)cc(Cl)nc2c1Br [Compound 75, 2-((1S,2S)-2-aminocycloheptyl)-3-bromo-5-chloro-N-(thiophen-2-ylmethyl)thieno[3,2-b]pyridin-7-amine]
IC50 [1]: 30 to 300 nM | IC50 (ATXN3 pre-mRNA): 30 to 300 nM

[2H]C1=C([2H])C([2H])([2H])[C@H](c2sc3c(NCc4ccco4)cc(Cl)nc3c2C)[C@@H](N)C1([2H])[2H] [Compound 212, 2-((1S,6S)-6-aminocyclohex-3-en-1-yl-2,2,3,4,5,5-d6)-5-chloro-N-(furan-2-ylmethyl)-3-methylthieno[3,2-b]pyridin-7-amine]
IC50 [1]: ≤ 30 nM | IC50 (ATXN3 pre-mRNA): ≤ 30 nM

CN(Cc1ccco1)c1cc(Cl)nc2c(C#CCCCO)c([C@@H]3CC=CC[C@H]3N)sc12 [Compound 452, 5-(2-((1R,6R)-6-aminocyclohex-3-en-1-yl)-5-chloro-7-((furan-2-ylmethyl)(methyl)amino)thieno[3,2-b]pyridin-3-yl)pent-4-yn-1-ol]
IC50 [1]: 30 to 300 nM | IC50 (ATXN3 pre-mRNA): 30 to 300 nM

N[C@H]1CC=CC[C@@H]1c1sc2c(NCc3ccncc3)cc(Cl)nc2c1Br [Compound 198, 2-((1S,6S)-6-aminocyclohex-3-en-1-yl)-3-bromo-5-chloro-N-(pyridin-4-ylmethyl)thieno[3,2-b]pyridin-7-amine]
IC50 [1]: ≤ 30 nM | IC50 (ATXN3 pre-mRNA): ≤ 30 nM

N[C@@H]1CC=CC[C@H]1c1c(I)c2nc(Cl)nc(NCc3ccco3)c2n1C(F)F [Compound 379, 6-((1R,6R)-6-aminocyclohex-3-en-1-yl)-2-chloro-5-(difluoromethyl)-N-(furan-2-ylmethyl)-7-iodo-5H-pyrrolo[3,2-d]pyrimidin-4-amine]
IC50 [1]: 30 to 300 nM | IC50 (ATXN3 pre-mRNA): 30 to 300 nM

Cc1c([C@H]2CC=C(C(N)=O)C[C@@H]2N)sc2c(NCc3cccs3)cc(Cl)nc12 [Compound 274, (4S,5S)-5-amino-4-(5-chloro-3-methyl-7-((thiophen-2-ylmethyl)amino)thieno[3,2-b]pyridin-2-yl)cyclohex-1-ene-1-carboxamide]
IC50 [1]: 30 to 300 nM | IC50 (ATXN3 pre-mRNA): 30 to 300 nM

Cc1c([C@@H]2CC=CC[C@H]2N)sc2c(NCc3ccco3)nc(Cl)nc12 [Compound 413, 6-((1R,6R)-6-aminocyclohex-3-en-1-yl)-2-chloro-N-(furan-2-ylmethyl)-7-methylthieno[3,2-d]pyrimidin-4-amine]
IC50 [1]: 30 to 300 nM | IC50 (ATXN3 pre-mRNA): 30 to 300 nM

N[C@H]1CCCCC[C@H]1c1sc2c(NCc3cccs3)cc(Cl)nc2c1Cl [Compound 77, 2-((1R,2S)-2-aminocycloheptyl)-3,5-dichloro-N-(thiophen-2-ylmethyl)thieno[3,2-b]pyridin-7-amine]
IC50 [1]: > 1000 nM | IC50 (ATXN3 pre-mRNA): 300 to 1000 nM
